Read-outs that look alike come from different tables or passages of the source.
How the values were obtained:
[1] = molecular target: T1, PKA catalytic domain (Homo sapiens, UniProt P17612); assay: Measurement of PKA kinase inhibitory activity (IC50), 33P-ATP filter plate assay; type: biochemical; conditions: 1 nM enzyme, 40 μM ATP, 20 minutes; read-out: IC50, inhibition of PKA activity
T1 construct: using the PKA catalytic domain from Upstate Biotechnology (#14-440); purchased Upstate Biotechnology 14-440
Procedure: A final concentration of 1 nM enzyme is used in a buffer that includes 20 mM MOPS pH 7.2, 40 μM ATP/γ^33P-ATP and […] substrate. Compounds are added in dimethylsulphoxide (DMSO) solution to a final DMSO concentration of 2.5%. The reaction is allowed to proceed for 20 minutes before addition of excess orthophosphoric acid to quench activity. Unincorporated γ^33P-ATP is then separated from phosphorylated proteins on a Millipore MAPH filter plate. The plates are washed, scintillant is added and the plates are then subjected to counting on a Packard Topcount.

[2] = molecular target: T2, PKB-PIF fusion protein (Homo sapiens, UniProt P31751); assay: Measurement of PKB kinase inhibitory activity (IC50), 33P-ATP phosphocellulose filter assay; type: biochemical
T2 construct: PIF (fusion partner); made in house
Procedure: The inhibition of protein kinase B (PKB) activity by compounds can be determined essentially as described by Andjelkovic et al. (Mol. Cell. Biol. 19, 5061-5072 (1999)) but using a fusion protein described as PKB-PIF and described in full by Yang et al (Nature Structural Biology 9, 940-944 (2002)). […] A final concentration of 0.6 nM enzyme is used in a buffer that includes 20 mM MOPS pH 7.2, 30 μM ATP/γ^33P-ATP and 25 μM substrate.
Compounds are added in DMSO solution to a final DMSO concentration of 2.5%. The reaction is allowed to proceed for 20 minutes before addition of excess orthophosphoric acid to quench activity. The reaction mixture is transferred to a phosphocellulose filter plate where the peptide binds and the unused ATP is washed away. After washing, scintillant is added and the incorporated activity measured by scintillation counting.
The % inhibition of the PKB activity is calculated and plotted in order to determine the concentration of test compound required to inhibit 50% of the PKB activity (IC50).

[3] = 0.6 nM enzyme, 30 μM ATP, 25 μM AKTide-2T substrate, 20 minutes, read-out: IC50, inhibition of PKB activity

T2 sequence (P31751 with tags, fused parts or gaps limits assumed): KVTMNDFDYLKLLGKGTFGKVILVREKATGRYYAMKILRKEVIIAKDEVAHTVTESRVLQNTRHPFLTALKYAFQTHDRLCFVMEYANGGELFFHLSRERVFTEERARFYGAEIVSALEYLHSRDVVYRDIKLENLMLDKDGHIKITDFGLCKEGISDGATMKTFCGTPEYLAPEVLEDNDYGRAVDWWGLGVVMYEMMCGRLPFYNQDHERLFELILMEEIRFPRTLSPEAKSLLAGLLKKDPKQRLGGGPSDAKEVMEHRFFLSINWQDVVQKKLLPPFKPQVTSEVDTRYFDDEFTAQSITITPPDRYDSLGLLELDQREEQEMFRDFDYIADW

SMILES	IC50 [1] [µM]	IC50 [2, 3] [µM]	IC50 [2] [µM]
CNC1CCN(c2ncnc3[nH]cnc23)CC1 [Example 1, Methyl-[1-(9H-purin-6-yl)-piperidin-4-yl]-amine]	< 10	< 10	–
c1ccc(CNC2CCN(c3ncnc4[nH]cnc34)CC2)cc1 [Example 2, Benzyl-[1-(9H-purin-6-yl)-piperidin-4-yl]-amine]	–	< 10	–
NC1CCN(c2ncnc3[nH]c(=O)[nH]c23)CC1 [Example 4, 6-(4-Aminopiperidin-1-yl)-7,9-dihydropurin-8-one]	< 50	< 10	–
O=c1[nH]c2ncnc(N3CCC(O)(Cc4ccccc4)CC3)c2[nH]1 [Example 5, 6-(4-Benzyl-4-hydroxypiperidin-1-yl)-7,9-dihydropurin-8-one]	< 50	< 50	–
O=c1[nH]c2ncnc(N3CCNCC3)c2[nH]1 [Example 6, 6-(Piperazin-1-yl)-7,9-dihydropurin-8-one]	< 10	< 10	–
O=c1[nH]c2ncnc(N3CCN[C@H](COCc4ccccc4)C3)c2[nH]1 [Example 7, (3S)-6-(3-Benzyloxymethylpiperazin-1-yl)-7,9-dihydropurin-8-one]	< 50	< 50	–
O=c1[nH]c2ncnc(N3CCC(NCCc4ccccc4)CC3)c2[nH]1 [Example 8, 6-(4-Phenethylaminopiperidin-1-yl)-7,9-dihydro-purin-8-one]	< 10	< 10	–
O=c1[nH]c2ncnc(N3CCC(NCc4ccccc4Cl)CC3)c2[nH]1 [Example 9, 6-[4-(2-Chlorobenzylamino)-piperidin-1-yl]-7,9-dihydro-purin-8-one]	< 50	< 50	–
O=c1[nH]c2ncnc(N3CCC(NCc4cccc(Cl)c4)CC3)c2[nH]1 [Example 10, 6-[4-(3-Chlorobenzylamino)-piperidin-1-yl]-7,9-dihydro-purin-8-one]	< 10	< 10	–
NC1CCN(c2ncnc3[nH]ncc23)CC1 [Example 11, 1-(1H-Pyrazolo[3,4-d]pyrimidin-4-yl)-piperidin-4-ylamine]	< 10	< 10	–
NC1CCN(c2ncnc3[nH]ccc23)CC1 [Example 12, 1-(7H-Pyrrolo[2,3-d]pyrimidin-4-yl)-piperidin-4-ylamine]	< 10	< 10	–
NCC1(c2ccc(Cl)cc2)CCN(c2ncnc3[nH]cnc23)CC1 [Example 15, C-[4-(4-Chloro-phenyl)-1-(9H-purin-6-yl)-piperidin-4-yl]-methylamine]	–	< 10	–
NC1(Cc2ccccc2)CCN(c2ncnc3[nH]cnc23)CC1 [Example 16, 4-Benzyl-1-(9H-purin-6-yl)piperidin-4-ylamine]	–	< 10	–
NCC1(c2ccc(Cl)cc2)CCN(c2ccnc3[nH]ccc23)CC1 [Example 21, C-[4-(4-Chlorophenyl)-1-(1H-pyrrolo[2,3-b]pyridin-4-yl)piperidin-4-yl]methylamine]	–	< 10	–
CCn1c(=O)[nH]c2ncnc(N3CCC(CN)(c4ccc(Cl)cc4)CC3)c21 [Example 22, 6-[4-Aminomethyl-4-(4-chlorophenyl)piperidin-1-yl]-7-ethyl-7,9-dihydro-purin-8-one]	–	< 10	–
NCC1(Cc2ccc(Cl)cc2)CCN(c2ncnc3[nH]cnc23)CC1 [Example 23, C-[4-(4-Chlorobenzyl)-1-(9H-purin-6-yl)piperidin-4-yl]methylamine]	–	< 10	–
N#CC1(c2ccc(Cl)cc2)CCN(c2ncnc3[nH]ccc23)CC1 [Example 24, 4-(4-Chlorophenyl)-1-(7H-pyrrolo[2,3-d]pyrimidin-4-yl)piperidine-4-carbonitrile]	–	–	< 10

SMILES	IC50 [1] [µM]	IC50 [2, 3] [µM]	IC50 [2] [µM]
NCC1(c2cccc(Cl)c2)CCN(c2ncnc3[nH]cnc23)CC1 [Example 27, C-[4-(3-Chlorophenyl)-1-(9H-purin-6-yl)piperidin-4-yl]methylamine]	–	< 10	–
NCC1(c2ccc(Cl)c(Cl)c2)CCN(c2ncnc3[nH]cnc23)CC1 [Example 29, C-[4-(3,4-Dichlorophenyl)-1-(9H-purin-6-yl)piperidin-4-yl]methylamine]	–	< 10	–
NCC1(c2ccc(OC(F)(F)F)cc2)CCN(c2ncnc3[nH]ccc23)CC1 [Example 30]	–	< 10	–
NCC1(c2ccc(C(F)(F)F)cc2)CCN(c2ncnc3[nH]cnc23)CC1 [Example 33, C-[1-(9H-Purin-6-yl)-4-(4-trifluoromethylphenyl)piperidin-4-yl]methylamine]	–	< 10	–
NCC1(c2cccc(C(F)(F)F)c2)CCN(c2ncnc3[nH]ccc23)CC1 [Example 34, C-[1-(7H-Pyrrolo[2,3-d]pyrimidin-4-yl)-4-(3-trifluoromethylphenyl)piperidin-4-yl]methylamine]	–	< 10	–
NCC1(c2cccc(C(F)(F)F)c2)CCN(c2ncnc3[nH]cnc23)CC1 [Example 35, C-[1-(9H-Purin-6-yl)-4-(3-trifluoromethylphenyl)piperidin-4-yl]methylamine]	–	< 10	–
NCC1(c2ccc(F)c(F)c2)CCN(c2ncnc3[nH]ccc23)CC1 [Example 36, C-[4-(3,4-Difluorophenyl)-1-(7H-pyrrolo[2,3-d]pyrimidin-4-yl)piperidin-4-yl]methylamine]	–	< 10	–
NCC1(c2ccc(F)c(F)c2)CCN(c2ncnc3[nH]cnc23)CC1 [Example 37, C-[4-(3,4-Difluorophenyl)-1-(9H-purin-6-yl)piperidin-4-yl]methylamine]	–	< 10	–
COc1ccc(C2(CN)CCN(c3ncnc4[nH]cnc34)CC2)cc1 [Example 39, C-[4-(4-Methoxyphenyl)-1-(9H-purin-6-yl)piperidin-4-yl]methylamine]	–	< 10	–
NCC1(c2ccc(OCc3ccccc3)cc2)CCN(c2ncnc3[nH]cnc23)CC1 [Example 41, C-[4-(4-Benzyloxyphenyl)-1-(9H-purin-6-yl)piperidin-4-yl]methylamine]	–	< 10	–
CC(C)NCC1(c2ccc(Cl)cc2)CCN(c2ncnc3[nH]ccc23)CC1 [Example 43, [4-(4-Chlorophenyl)-1-(7H-pyrrolo[2,3-d]pyrimidin-4-yl)-piperidin-4-ylmethyl]-isopropylamine]	–	< 10	–
NCC1(Cc2ccc(Cl)c(Cl)c2)CCN(c2ncnc3[nH]ccc23)CC1 [Example 45, C-[4-(3,4-Dichlorobenzyl)-1-(7H-pyrrolo[2,3-d]pyrimidin-4-yl)piperidin-4-yl]methylamine]	–	< 10	–
NCC1(Cc2ccc(Cl)c(Cl)c2)CCN(c2ncnc3[nH]cnc23)CC1 [Example 46, C-[4-(3,4-Dichlorobenzyl)-1-(9H-purin-6-yl)piperidin-4-yl]methylamine]	–	< 10	–
NCC1(Cc2ccc(OC(F)(F)F)cc2)CCN(c2ncnc3[nH]ccc23)CC1 [Example 47, C-[1-(7H-Pyrrolo[2,3-d]pyrimidin-4-yl)-4-(4-trifluoromethoxybenzyl)piperidin-4-yl]methylamine]	–	< 10	–
NCC1(Cc2ccc(OC(F)(F)F)cc2)CCN(c2ncnc3[nH]cnc23)CC1 [Example 48, C-[1-(9H-Purin-6-yl)-4-(4-trifluoromethoxybenzyl)piperidin-4-yl]methylamine]	–	< 10	–
NC1(Cc2ccc(Cl)c(Cl)c2)CCN(c2ncnc3[nH]cnc23)CC1 [Example 50, 4-(3,4-Dichlorobenzyl)-1-(9H-purin-6-yl)piperidin-4-yl amine]	–	< 10	–
NC1(Cc2ccc(OC(F)(F)F)cc2)CCN(c2ncnc3[nH]cnc23)CC1 [Example 52, 1-(9H-Purin-6-yl)-4-(4-trifluoromethoxybenzyl)piperidin-4-ylamine]	–	< 10	–
